From ChEMBL document CHEMBL1201861, “Genomics of Drug Sensitity in Cancer screening data, Wellcome Trust Sanger Institute”

What was measured:
Assay in all cases: cells
COR-L23 = format: functional, cell-based; conditions: Homo sapiens;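 also: cell viability assay measuring how strongly compounds suppress growth of COR-L23 cells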
Description: SANGER: Inhibition of human COR-L23 cell growth in a cell viability assay.

CP50-MEL-B = format: functional, cell-based; conditions: Homo sapiens;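 also: growth inhibition of the human cell line, measured with a cell viability read-out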
Description: SANGER: Inhibition of human CP50-MEL-B cell growth in a cell viability assay.

Ca-Ski = format: functional, cell-based; conditions: Homo sapiens;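 also: cell viability assay measuring inhibition of Ca-Ski cell growth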
Description: SANGER: Inhibition of human Ca-Ski cell growth in a cell viability assay.

CaR-1 = format: functional, cell-based; conditions: Homo sapiens;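 also: growth inhibition of human CaR-1 cancer cells, read out with a cell viability assay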
Description: SANGER: Inhibition of human CaR-1 cell growth in a cell viability assay.

D-247MG = format: functional, cell-based; conditions: Homo sapiens
Description: SANGER: Inhibition of human D-247MG cell growth in a cell viability assay.

DOK = format: functional, cell-based; conditions: Homo sapiens;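 also: cell viability assay read-out, values reflect inhibition of cell growth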
Description: SANGER: Inhibition of human DOK cell growth in a cell viability assay.

FaDu = format: functional, cell-based; conditions: Homo sapiens;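 also: cell viability readout of growth inhibition in FaDu cells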
Description: SANGER: Inhibition of human FADU cell growth in a cell viability assay.

GCT = format: functional, cell-based; conditions: Homo sapiens;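 also: GCT cell line proliferation inhibition, read out with a cell viability assay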
Description: SANGER: Inhibition of human GCT cell growth in a cell viability assay.

Kasumi 1 = format: functional, cell-based; conditions: Homo sapiens;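 also: growth inhibition of human Kasumi-1 cells, read out by a cell viability assay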
Description: SANGER: Inhibition of human KASUMI-1 cell growth in a cell viability assay.

KYSE-520 cell line = format: functional, cell-based; conditions: Homo sapiens;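 also: growth inhibition of human KYSE-520 cells, read out with a viability assay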
Description: SANGER: Inhibition of human KYSE-520 cell growth in a cell viability assay.

KYSE-70 cell line = format: functional, cell-based; conditions: Homo sapiens;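 also: cell viability assay read-out, with IC50 expressing suppression of KYSE-70 cell growth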
Description: SANGER: Inhibition of human KYSE-70 cell growth in a cell viability assay.

LK-2 = format: functional, cell-based; conditions: Homo sapiens;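 also: growth inhibition of LK-2 cells, read out with a viability assay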
Description: SANGER: Inhibition of human LK-2 cell growth in a cell viability assay.

MCF7 = format: functional, cell-based; conditions: Homo sapiens;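 also: growth inhibition of human MCF7 cells, read out with a cell viability assay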
Description: SANGER: Inhibition of human MCF7 cell growth in a cell viability assay.

MDA-MB-157 = format: functional, cell-based; conditions: Homo sapiens
Description: SANGER: Inhibition of human MDA-MB-157 cell growth in a cell viability assay.

MDA-MB-175-VII = format: functional, cell-based; conditions: Homo sapiens
MDA-MB-361 = format: functional, cell-based; conditions: Homo sapiens
MEL-JUSO = format: functional, cell-based; conditions: Homo sapiens;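 also: growth inhibition of human MEL-JUSO cells, read out with a cell viability assay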
Description: SANGER: Inhibition of human MEL-JUSO cell growth in a cell viability assay.

MIA PaCa-2 = format: functional, cell-based; conditions: Homo sapiens;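 also: growth inhibition of MIA PaCa-2 cells, read out with a cell viability assay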
Description: SANGER: Inhibition of human MIA-PaCa-2 cell growth in a cell viability assay.

NCI-H1793 = format: functional, cell-based; conditions: Homo sapiens;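 also: cell growth inhibition, read out by a cell viability assay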
Description: SANGER: Inhibition of human NCI-H1793 cell growth in a cell viability assay.

NCI-H2030 = format: functional, cell-based; conditions: Homo sapiens;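 also: growth inhibition of human NCI-H2030 cells, read out by a cell viability assay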
Description: SANGER: Inhibition of human NCI-H2030 cell growth in a cell viability assay.

NCI-H2052 = format: functional, cell-based; conditions: Homo sapiens;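 also: growth inhibition of NCI-H2052 cells, read out with a cell viability assay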
Description: SANGER: Inhibition of human NCI-H2052 cell growth in a cell viability assay.

NCI-H2122 = format: functional, cell-based; conditions: Homo sapiens;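 also: growth inhibition of the cells, read out with a cell viability assay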
Description: SANGER: Inhibition of human NCI-H2122 cell growth in a cell viability assay.

NCI-N87 = format: functional, cell-based; conditions: Homo sapiens;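 also: growth inhibition of human NCI-N87 cells, read out with a cell viability assay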
Description: SANGER: Inhibition of human NCI-N87 cell growth in a cell viability assay.

NUGC-3 = format: functional, cell-based; conditions: Homo sapiens;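 also: growth inhibition of human NUGC-3 cells, read out with a cell viability assay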
Description: SANGER: Inhibition of human NUGC-3 cell growth in a cell viability assay.

OAW-42 = format: functional, cell-based; conditions: Homo sapiens;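 also: growth inhibition of OAW-42 cells, read out with a cell viability assay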
Description: SANGER: Inhibition of human OAW-42 cell growth in a cell viability assay.

OVCAR-5 = format: functional, cell-based; conditions: Homo sapiens;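 also: growth inhibition of human OVCAR-5 cells, read out with a cell viability assay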
Description: SANGER: Inhibition of human OVCAR-5 cell growth in a cell viability assay.

PA-1 = format: functional, cell-based; conditions: Homo sapiens;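 also: IC50 for suppression of PA-1 cell proliferation, determined with a cell viability read-out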
Description: SANGER: Inhibition of human PA-1 cell growth in a cell viability assay.

PANC-03-27 = format: functional, cell-based; conditions: Homo sapiens
Description: SANGER: Inhibition of human PANC-03-27 cell growth in a cell viability assay.

RD = format: functional, cell-based; conditions: Homo sapiens
Description: SANGER: Inhibition of human RD cell growth in a cell viability assay.

RERF-LC-MS = format: functional, cell-based; conditions: Homo sapiens;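 also: growth inhibition of human RERF-LC-MS cells, read out by a cell viability assay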
Description: SANGER: Inhibition of human RERF-LC-MS cell growth in a cell viability assay.

RPMI-2650 = format: functional, cell-based; conditions: Homo sapiens
Description: SANGER: Inhibition of human RPMI-2650 cell growth in a cell viability assay.

SF-295 = format: functional, cell-based; conditions: Homo sapiens;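 also: growth inhibition of SF-295 cells, read out with a cell viability assay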
Description: SANGER: Inhibition of human SF295 cell growth in a cell viability assay.

SK-MEL-24 = format: functional, cell-based; conditions: Homo sapiens;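 also: growth inhibition read out by a cell viability assay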
Description: SANGER: Inhibition of human SK-MEL-24 cell growth in a cell viability assay.

SK-MEL-28 = format: functional, cell-based; conditions: Homo sapiens;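 also: growth inhibition of human SK-MEL-28 cells, read out with a cell viability assay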
Description: SANGER: Inhibition of human SK-MEL-28 cell growth in a cell viability assay.

SKG-IIIa = format: functional, cell-based; conditions: Homo sapiens;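 also: cell growth inhibition, read out with a cell viability assay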
Description: SANGER: Inhibition of human SKG-IIIa cell growth in a cell viability assay.

SW1710 = format: functional, cell-based; conditions: Homo sapiens;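 also: growth inhibition of SW1710 cells, determined with a cell viability assay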
Description: SANGER: Inhibition of human SW1710 cell growth in a cell viability assay.

SW-620 = format: functional, cell-based; conditions: Homo sapiens;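 also: growth inhibition of human SW-620 cells, measured by a cell viability assay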
Description: SANGER: Inhibition of human SW620 cell growth in a cell viability assay.

SW626 = format: functional, cell-based; conditions: Homo sapiens;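 also: growth inhibition of SW626 cells, measured with a cell viability assay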
Description: SANGER: Inhibition of human SW626 cell growth in a cell viability assay.

T84 = format: functional, cell-based; conditions: Homo sapiens;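 also: growth inhibition measured with a cell viability readout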
Description: SANGER: Inhibition of human T84 cell growth in a cell viability assay.

CWR22R = format: functional, cell-based; conditions: Homo sapiens, 22Rv1;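 also: growth inhibition of 22Rv1 cells, read out with a cell viability assay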
Description: SANGER: Inhibition of human 22RV1 cell growth in a cell viability assay.

5637 = format: functional, cell-based; conditions: Homo sapiens
Description: SANGER: Inhibition of human 5637 cell growth in a cell viability assay.

769-P = format: functional, cell-based; conditions: Homo sapiens
Description: SANGER: Inhibition of human 769-P cell growth in a cell viability assay.

8305C = format: functional, cell-based; conditions: Homo sapiens
Description: SANGER: Inhibition of human 8305C cell growth in a cell viability assay.

8505C = format: functional, cell-based; conditions: Homo sapiens
Description: SANGER: Inhibition of human 8505C cell growth in a cell viability assay.

A-375 = format: functional, cell-based; conditions: Homo sapiens;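 also: growth inhibition of A375 cells, read out with a cell viability assay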
Description: SANGER: Inhibition of human A375 cell growth in a cell viability assay.

BPH-1 = format: functional, cell-based; conditions: Homo sapiens;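 also: cell viability assay measuring growth inhibition of human BPH-1 cells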
Description: SANGER: Inhibition of human BPH-1 cell growth in a cell viability assay.

BXPC-3 = format: functional, cell-based; conditions: Homo sapiens;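 also: growth inhibition of human BxPC-3 cells, read out by a cell viability assay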
Description: SANGER: Inhibition of human BxPC-3 cell growth in a cell viability assay.

C32 = format: functional, cell-based; conditions: Homo sapiens;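 also: cell viability assay, with IC50 reflecting inhibition of C32 cell growth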
Description: SANGER: Inhibition of human C32 cell growth in a cell viability assay.

CAKI-1 = format: functional, cell-based; conditions: Homo sapiens;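 also: growth inhibition of CAKI-1 cells, measured by a cell viability assay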
Description: SANGER: Inhibition of human CAKI-1 cell growth in a cell viability assay.

CAL-12T = format: functional, cell-based, Homo sapiens; conditions: Homo sapiens, CAL-12T;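 also: growth inhibition of human CAL-12T cells, read out with a cell viability assay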
Description: SANGER: Inhibition of human CAL-12T cell growth in a cell viability assay.

UMC-11 = format: functional, cell-based; conditions: Homo sapiens;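 also: growth inhibition of UMC-11 cells, read out with a cell viability assay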
Description: SANGER: Inhibition of human UMC-11 cell growth in a cell viability assay.

`Cn1cc(/C=C2\C(=O)Nc3cccnc32)c2ccccc21` gave an IC50 (COR-L23) greater than 2000 nM, an IC50 (CP50-MEL-B) greater than 2000 nM and an IC50 (Ca-Ski) greater than 2000 nM. For the same compound, the IC50 (CaR-1) was greater than 2000 nM, the IC50 (D-247MG) was greater than 2000 nM and the IC50 (DOK) was greater than 2000 nM. The IC50 (FaDu) was greater than 2000 nM, the IC50 (GCT) was greater than 2000 nM and the IC50 (Kasumi 1) was greater than 2000 nM. For the same compound, the IC50 (KYSE-520 cell line) was greater than 2000 nM, the IC50 (KYSE-70 cell line) was greater than 2000 nM and the IC50 (LK-2) was greater than 2000 nM. The IC50 (MCF7) was greater than 2000 nM, the IC50 (MDA-MB-157) was greater than 2000 nM and the IC50 (MDA-MB-175-VII) was greater than 2000 nM. The IC50 (MDA-MB-361) was greater than 2000 nM, the IC50 (MEL-JUSO) was greater than 2000 nM and the IC50 (MIA PaCa-2) was greater than 2000 nM. The IC50 (NCI-H1793) was greater than 2000 nM, the IC50 (NCI-H2030) was greater than 2000 nM and the IC50 (NCI-H2052) was greater than 2000 nM. For the same compound, the IC50 (NCI-H2122) was greater than 2000 nM, the IC50 (NCI-N87) was greater than 2000 nM and the IC50 (NUGC-3) was greater than 2000 nM. For the same compound, the IC50 (OAW-42) was greater than 2000 nM, the IC50 (OVCAR-5) was greater than 2000 nM and the IC50 (PA-1) was greater than 2000 nM. The IC50 (PANC-03-27) was greater than 2000 nM, the IC50 (RD) was greater than 2000 nM and the IC50 (RERF-LC-MS) was greater than 2000 nM. It also gave an IC50 (RPMI-2650) greater than 2000 nM, an IC50 (SF-295) greater than 2000 nM and an IC50 (SK-MEL-24) greater than 2000 nM. The IC50 (SK-MEL-28) was greater than 2000 nM, the IC50 (SKG-IIIa) was greater than 2000 nM and the IC50 (SW1710) was greater than 2000 nM. The IC50 (SW-620) was greater than 2000 nM, the IC50 (SW626) was greater than 2000 nM and the IC50 (T84) was greater than 2000 nM. For the same compound, the IC50 (CWR22R) was greater than 2000 nM, the IC50 5637 was greater than 2000 nM and the IC50 (769-P) was greater than 2000 nM. For the same compound, the IC50 (8305C) was greater than 2000 nM, the IC50 (8505C) was greater than 2000 nM and the IC50 (A-375) was greater than 2000 nM. For the same compound, the IC50 (BPH-1) was greater than 2000 nM, the IC50 (BXPC-3) was greater than 2000 nM and the IC50 (C32) was greater than 2000 nM. It also gave an IC50 (CAKI-1) greater than 2000 nM, an IC50 (CAL-12T) greater than 2000 nM and an IC50 (UMC-11) greater than 2000 nM.

Work on `C[C@]12O[C@H](C[C@]1(O)CO)n1c3ccccc3c3c4c(c5c6ccccc6n2c5c31)CNC4=O` [LESTAURTINIB] yielded an IC50 (COR-L23) of 665 nM, an IC50 (CP50-MEL-B) of 632 nM and an IC50 (Ca-Ski) greater than 2000 nM. It also gave an IC50 (CaR-1) of 147 nM, an IC50 (D-247MG) of 528 nM and an IC50 (DOK) of 297 nM. The IC50 (FaDu) was 648 nM, the IC50 (GCT) was 327 nM and the IC50 (Kasumi 1) was 19.1 nM. The IC50 (KYSE-520 cell line) was 1930 nM, the IC50 (KYSE-70 cell line) was greater than 2000 nM and the IC50 (LK-2) was 428 nM. For the same compound, the IC50 (MCF7) was greater than 2000 nM, the IC50 (MDA-MB-157) was 276 nM and the IC50 (MDA-MB-175-VII) was 1140 nM. The IC50 (MDA-MB-361) was 1250 nM, the IC50 (MEL-JUSO) was 503 nM and the IC50 (MIA PaCa-2) was 862 nM. For the same compound, the IC50 (NCI-H1793) was greater than 2000 nM, the IC50 (NCI-H2030) was 1320 nM and the IC50 (NCI-H2052) was 488 nM. The IC50 (NCI-H2122) was 1920 nM, the IC50 (NCI-N87) was greater than 2000 nM and the IC50 (NUGC-3) was greater than 2000 nM. For the same compound, the IC50 (OAW-42) was 349 nM, the IC50 (OVCAR-5) was 504 nM and the IC50 (PA-1) was 140 nM. For the same compound, the IC50 (PANC-03-27) was 342 nM, the IC50 (RD) was greater than 2000 nM and the IC50 (RERF-LC-MS) was 812 nM. It also gave an IC50 (RPMI-2650) of 1190 nM, an IC50 (SF-295) of 428 nM and an IC50 (SK-MEL-24) greater than 2000 nM. The IC50 (SK-MEL-28) was 327 nM, the IC50 (SKG-IIIa) was 255 nM and the IC50 (SW1710) was 128 nM. For the same compound, the IC50 (SW-620) was 557 nM, the IC50 (SW626) was 1130 nM and the IC50 (T84) was greater than 2000 nM. The IC50 (CWR22R) was 1400 nM, the IC50 5637 was 82.1 nM and the IC50 (769-P) was 1610 nM. For the same compound, the IC50 (8305C) was greater than 2000 nM, the IC50 (8505C) was 302 nM and the IC50 (A-375) was 332 nM. For the same compound, the IC50 (BPH-1) was 1300 nM, the IC50 (BXPC-3) was greater than 2000 nM and the IC50 (C32) was 182 nM. It also gave an IC50 (CAKI-1) of 334 nM, an IC50 (CAL-12T) of 870 nM and an IC50 (UMC-11) of 1120 nM.
